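Interpolation was linear, between the two tested concentrations surrounding the appropriate level; five concentrations were tested over 48 hours in 96-well plates. GI50: concentration for 50% inhibition of growth.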 Activity calls are given as the source filed them. No stated cut-off is given here; in the data, active = GI50 up to about 1.1 µM and inactive = higher. Positions of bridges follow the written chain, without caps; N, C: chain ends. Non-standard residues stand in square brackets, D forms with d. Residues, ends and D or L forms follow the SMILES beside them. ξ: configuration not given here. *: point of attachment. X28 = O=C(/C=C/C=C/C=C/C=C/C=C/C(=O)*)NC1=C(O)CCC1=O; Pro(4R-Me) = C[C@H]1CN[C@H](C(=O)O)C1; NMeA = CN[C@@H](C)C(=O)O; ξF = NC(Cc1ccccc1)C(=O)O; ξA = CC(N)C(=O)O
Assays:
Experiment in all cases: NCI anticancer screen, dose series, 48 h
[1] = tested on: CCRF-CEM
[2] = tested on: UACC-62
[3] = tested on: HT-29
[4] = tested on: LOX IMVI
[5] = tested on: A498
[6] = tested on: MCF7
[7] = tested on: SK-MEL-5
[8] = tested on: OVCAR-3
[9] = tested on: KM12
[10] = tested on: NCI-H226
[11] = tested on: SF-539
[12] = tested on: SW-620
[13] = tested on: NCI-H23
[14] = tested on: SK-MEL-2
[15] = tested on: OVCAR-5
[16] = tested on: COLO 205
[17] = tested on: UO-31
[18] = tested on: T47D
[19] = tested on: NCI/ADR-RES
[20] = tested on: HOP-62

Measured: GI50

N#CC(c1ccccc1)N(CCOCCOCCN(C(=O)c1cccc2ccccc12)C(C#N)c1ccccc1)C(=O)c1cccc2ccccc12 (stereo not drawn)
inactive: [1] > 100 µM | [2] > 100 µM | [3] > 100 µM | [4] > 100 µM | [5] > 100 µM | [6] > 100 µM | [7] > 100 µM | [8] > 100 µM | [9] > 100 µM | [10] > 100 µM | [11] > 100 µM | [12] > 100 µM | [13] > 100 µM | [14] > 100 µM | [15] > 100 µM | [16] 52.1 µM | [17] > 100 µM | [18] 4.1 µM | [19] > 100 µM

Cc1ccc(S(=O)(=O)N(CC(O)COc2ccccc2)c2c(F)cccc2F)cc1 (stereo not drawn)
inactive: [1] 28.7 µM | [2] 14.8 µM | [3] 17.4 µM | [4] 15.2 µM | [5] 19.6 µM | [6] 15.7 µM | [7] 13.8 µM | [8] 11.6 µM | [20] 19.2 µM | [9] 17.7 µM | [10] 21.9 µM | [11] 16.9 µM | [12] 23 µM | [13] 18.5 µM | [14] 16.6 µM | [15] 38 µM | [16] 14.7 µM | [17] 15.7 µM | [18] 2.21 µM | [19] 17.5 µM

CC1NC(=O)[C@H](C)N(C)C(=O)[C@@H]2CCCN2C(=O)[C@@H](NC(=O)C(Cc2ccccc2)NC(=O)/C=C/C=C/C=C/C=C/C=C/C(=O)NC2=C(O)CCC2=O)COC(=O)[C@@H]2C[C@@H](C)CN2C1=O (stereo partly drawn) (X28-[ξF]SP[NMeA][ξA][Pro(4R-Me)]; ester 2-C)
inactive: [1] > 100 µM | [2] > 100 µM | [3] > 100 µM | [4] > 100 µM | [5] > 100 µM | [6] > 100 µM | [7] > 100 µM | [8] > 100 µM | [20] > 100 µM | [9] > 100 µM | [11] > 100 µM | [12] > 100 µM | [13] > 100 µM | [14] > 100 µM | [15] > 100 µM | [16] > 100 µM | [17] > 100 µM | [18] > 100 µM | [19] > 100 µM

From ChEMBL document CHEMBL1201862, “PubChem BioAssay data set” (2004)
